The source of these data is patent US11331369B2, “Endoparasitic depsipeptides” (Zoetis Services LLC, priority 2017, dated 2022).

For assay [1], the system named is 4th stage larvae (L4) of Dirofilaria immitis. The assay can be described thus: Dirofilaria immitis, L4 Stage (DiL4) In Vitro Assay. It counts as cell-based. The conditions noted are these: Dirofilaria immitis, 72 h, read-out: DiL4 Minimum Effective Dose (MED), approximately 72 hours incubation; L4 larvae assessed for survival or paralysis.
Assay [2] deals with third stage larvae of Haemonchus contortus. The assay can be described thus: Haemonchus contortus L3 (HcL3) Assay. It is filed as cell-based. The conditions noted are these: 96 h, read-out: HcL3 Minimum Effective Dose (MED).

Structures are written as SMILES.

For `CC(C)C[C@H]1C(=O)O[C@H](Cc2ccc(Cn3ccnc3Cl)cc2)C(=O)N(C)[C@@H](CC(C)C)C(=O)O[C@H](C)C(=O)N(C)[C@@H](CC(C)C)C(=O)O[C@H](Cc2ccccc2)C(=O)N(C)[C@@H](CC(C)C)C(=O)O[C@H](C)C(=O)N1C` [Example 8-9, (3S,6R,9S,12R,15S,18R,21S,24R)-6-benzyl-18-(4-((2-chloro-1H-imidazol-1-yl)methyl)benzyl)-3,9,15,21-tetraisobutyl-4,10,12,16,22,24-hexamethyl-1,7,13,19-tetraoxa-4,10,16,22-tetraazacyclotetracosan-2,5,8,11,14,17,20,23-octaone], the results for the minimal effective concentration in assay [1] and in assay [2] were 0.0001 to 0.001 µM and 1 to 10 µM, respectively.
On the same counts, the results for `CC(C)C[C@H]1C(=O)O[C@H](Cc2ccc(Cn3nccc3-c3cnccn3)cc2)C(=O)N(C)[C@@H](CC(C)C)C(=O)O[C@H](C)C(=O)N(C)[C@@H](CC(C)C)C(=O)O[C@H](Cc2ccc(Cn3nccc3-c3cnccn3)cc2)C(=O)N(C)[C@@H](CC(C)C)C(=O)O[C@H](C)C(=O)N1C` [Example 1b-208, (3S,6R,9S,12R,15S,18R,21S,24R)-3,9,15,21-tetraisobutyl-4,6,10,16,18,22-hexamethyl-12,24-bis(4-((5-(pyrazin-2-yl)-1H-pyrazol-1-yl)methyl)benzyl)-1,7,13,19-tetraoxa-4,10,16,22-tetraazacyclotetracosan-2,5,8,11,14,17,20,23-octaone] are 0.001 to 0.01 µM and 10 to 100 µM.
On the same counts, the results for `CC(C)C[C@H]1C(=O)O[C@H](Cc2ccc(C3(n4cccn4)CCC3)cc2)C(=O)N(C)[C@@H](CC(C)C)C(=O)O[C@H](C)C(=O)N(C)[C@@H](CC(C)C)C(=O)O[C@H](Cc2ccc(C3(n4cccn4)CCC3)cc2)C(=O)N(C)[C@@H](CC(C)C)C(=O)O[C@H](C)C(=O)N1C` [Example 1c-1, (3S,6R,9S,12R,15S,18R,21S,24R)-6,18-bis(4-(1-(1H-pyrazol-1-yl)cyclobutyl)benzyl)-3,9,15,21-tetraisobutyl-4,10,12,16,22,24-hexamethyl-1,7,13,19-tetraoxa-4,10,16,22-tetraazacyclotetracosan-2,5,8,11,14,17,20,23-octaone] are no more than 0.0001 µM and no more than 1 µM.
On the same counts, the results for `COC(C)c1ccnn1Cc1ccc(C[C@H]2OC(=O)[C@H](CC(C)C)N(C)C(=O)[C@@H](C)OC(=O)[C@H](CC(C)C)N(C)C(=O)[C@@H](Cc3ccc(Cn4nccc4C(C)OC)cc3)OC(=O)[C@H](CC(C)C)N(C)C(=O)[C@@H](C)OC(=O)[C@H](CC(C)C)N(C)C2=O)cc1` (stereo partly drawn) [Example 1b-212, (3S,6R,9S,12R,15S,18R,21S,24R)-3,9,15,21-tetraisobutyl-6,18-bis(4-((5-(1-methoxyethyl)-1H-pyrazol-1-yl)methyl)benzyl)-4,10,12,16,22,24-hexamethyl-1,7,13,19-tetraoxa-4,10,16,22-tetraazacyclotetracosan-2,5,8,11,14,17,20,23-octaone] are 0.0001 to 0.001 µM and no more than 1 µM.
As to `CC(C)C[C@H]1C(=O)O[C@H](Cc2ccc(C(C)(C)n3cccn3)cc2)C(=O)N(C)[C@@H](CC(C)C)C(=O)O[C@H](C)C(=O)N(C)[C@@H](CC(C)C)C(=O)O[C@H](Cc2ccc(C(C)(C)n3cccn3)cc2)C(=O)N(C)[C@@H](CC(C)C)C(=O)O[C@H](C)C(=O)N1C` [Example 1c-6, (3S,6R,9S,12R,15S,18R,21S,24R)-6,18-bis(4-(2-(1H-pyrazol-1-yl)propan-2-yl)benzyl)-3,9,15,21-tetraisobutyl-4,10,12,16,22,24-hexamethyl-1,7,13,19-tetraoxa-4,10,16,22-tetraazacyclotetracosan-2,5,8,11,14,17,20,23-octaone], the results for the minimal effective concentration in assay [1] and in assay [2] were no more than 0.0001 µM and no more than 1 µM, respectively.
On the same counts, the results for `CC(C)C[C@H]1C(=O)O[C@H](Cc2ccc(Cn3ccnc3Br)cc2)C(=O)N(C)[C@@H](CC(C)C)C(=O)O[C@H](C)C(=O)N(C)[C@@H](CC(C)C)C(=O)O[C@H](Cc2ccc(Cn3ccnc3Br)cc2)C(=O)N(C)[C@@H](CC(C)C)C(=O)O[C@H](C)C(=O)N1C` [Example 6-3, (3S,6R,9S,12R,15S,18R,21S,24R)-6,18-bis[[4-[(2-bromoimidazol-1-yl)methyl]phenyl]methyl]-3,9,15,21-tetraisobutyl-4,10,12,16,22,24-hexamethyl-1,7,13,19-tetraoxa-4,10,16,22-tetrazacyclotetracosane-2,5,8,11,14,17,20,23-octaone] are no more than 0.0001 µM and 1 to 10 µM.
On the same counts, the results for `CCOCc1ccnn1Cc1ccc(C[C@H]2OC(=O)[C@H](CC(C)C)N(C)C(=O)[C@@H](C)OC(=O)[C@H](CC(C)C)N(C)C(=O)[C@@H](Cc3ccc(Cn4nccc4COCC)cc3)OC(=O)[C@H](CC(C)C)N(C)C(=O)[C@@H](C)OC(=O)[C@H](CC(C)C)N(C)C2=O)cc1` [Example 1b-176, (3S,6R,9S,12R,15S,18R,21S,24R)-6,18-bis(4-((5-(ethoxymethyl)-1H-pyrazol-1-yl)methyl)benzyl)-3,9,15,21-tetraisobutyl-4,10,12,16,22,24-hexamethyl-1,7,13,19-tetraoxa-4,10,16,22-tetraazacyclotetracosan-2,5,8,11,14,17,20,23-octaone] are no more than 0.0001 µM and no more than 1 µM.
On the same counts, the results for `CC(C)C[C@H]1C(=O)O[C@H](Cc2ccc(Cn3ncnc3CC3CC3)cc2)C(=O)N(C)[C@@H](CC(C)C)C(=O)O[C@H](C)C(=O)N(C)[C@@H](CC(C)C)C(=O)O[C@H](Cc2ccc(Cn3ncnc3CC3CC3)cc2)C(=O)N(C)[C@@H](CC(C)C)C(=O)O[C@H](C)C(=O)N1C` [Example 9-55, (3S,6R,9S,12R,15S,18R,21S,24R)-6,18-bis(4-((5-(cyclopropylmethyl)-1H-1,2,4-triazol-1-yl)methyl)benzyl)-3,9,15,21-tetraisobutyl-4,10,12,16,22,24-hexamethyl-1,7,13,19-tetraoxa-4,10,16,22-tetraazacyclotetracosan-2,5,8,11,14,17,20,23-octaone] are 0.0001 to 0.001 µM and no more than 1 µM.
In the case of `CC(C)C[C@H]1C(=O)O[C@H](Cc2ccc(Cn3cccn3)cc2)C(=O)N(C)[C@@H](CC(C)C)C(=O)O[C@H](C)C(=O)N(C)[C@@H](CC(C)C)C(=O)O[C@H](Cc2ccccc2)C(=O)N(C)[C@@H](CC(C)C)C(=O)O[C@H](C)C(=O)N1C` [Example 2-1, (3S,6R,9S,12R,15S,18R,21S,24R)-6-benzyl-3,9,15,21-tetraisobutyl-4,10,12,16,22,24-hexamethyl-18-[[4-(pyrazol-1-ylmethyl)phenyl]methyl]-1,7,13,19-tetraoxa-4,10,16,22-tetrazacyclotetracosane-2,5,8,11,14,17,20,23-octaone], the minimal effective concentration fell in the range of 0.0001 to 0.001 µM in assay [1] and 1 to 10 µM in assay [2].
